This passage reports Kd results from patent US20080227823A1, “AMIDE DERIVATIVES AS CALCIUM CHANNEL BLOCKERS” (priority 2007, published 2008).

The term Kd denotes the constant that tells how readily two partners part at equilibrium.

T1 sequence (O43497 whole entry): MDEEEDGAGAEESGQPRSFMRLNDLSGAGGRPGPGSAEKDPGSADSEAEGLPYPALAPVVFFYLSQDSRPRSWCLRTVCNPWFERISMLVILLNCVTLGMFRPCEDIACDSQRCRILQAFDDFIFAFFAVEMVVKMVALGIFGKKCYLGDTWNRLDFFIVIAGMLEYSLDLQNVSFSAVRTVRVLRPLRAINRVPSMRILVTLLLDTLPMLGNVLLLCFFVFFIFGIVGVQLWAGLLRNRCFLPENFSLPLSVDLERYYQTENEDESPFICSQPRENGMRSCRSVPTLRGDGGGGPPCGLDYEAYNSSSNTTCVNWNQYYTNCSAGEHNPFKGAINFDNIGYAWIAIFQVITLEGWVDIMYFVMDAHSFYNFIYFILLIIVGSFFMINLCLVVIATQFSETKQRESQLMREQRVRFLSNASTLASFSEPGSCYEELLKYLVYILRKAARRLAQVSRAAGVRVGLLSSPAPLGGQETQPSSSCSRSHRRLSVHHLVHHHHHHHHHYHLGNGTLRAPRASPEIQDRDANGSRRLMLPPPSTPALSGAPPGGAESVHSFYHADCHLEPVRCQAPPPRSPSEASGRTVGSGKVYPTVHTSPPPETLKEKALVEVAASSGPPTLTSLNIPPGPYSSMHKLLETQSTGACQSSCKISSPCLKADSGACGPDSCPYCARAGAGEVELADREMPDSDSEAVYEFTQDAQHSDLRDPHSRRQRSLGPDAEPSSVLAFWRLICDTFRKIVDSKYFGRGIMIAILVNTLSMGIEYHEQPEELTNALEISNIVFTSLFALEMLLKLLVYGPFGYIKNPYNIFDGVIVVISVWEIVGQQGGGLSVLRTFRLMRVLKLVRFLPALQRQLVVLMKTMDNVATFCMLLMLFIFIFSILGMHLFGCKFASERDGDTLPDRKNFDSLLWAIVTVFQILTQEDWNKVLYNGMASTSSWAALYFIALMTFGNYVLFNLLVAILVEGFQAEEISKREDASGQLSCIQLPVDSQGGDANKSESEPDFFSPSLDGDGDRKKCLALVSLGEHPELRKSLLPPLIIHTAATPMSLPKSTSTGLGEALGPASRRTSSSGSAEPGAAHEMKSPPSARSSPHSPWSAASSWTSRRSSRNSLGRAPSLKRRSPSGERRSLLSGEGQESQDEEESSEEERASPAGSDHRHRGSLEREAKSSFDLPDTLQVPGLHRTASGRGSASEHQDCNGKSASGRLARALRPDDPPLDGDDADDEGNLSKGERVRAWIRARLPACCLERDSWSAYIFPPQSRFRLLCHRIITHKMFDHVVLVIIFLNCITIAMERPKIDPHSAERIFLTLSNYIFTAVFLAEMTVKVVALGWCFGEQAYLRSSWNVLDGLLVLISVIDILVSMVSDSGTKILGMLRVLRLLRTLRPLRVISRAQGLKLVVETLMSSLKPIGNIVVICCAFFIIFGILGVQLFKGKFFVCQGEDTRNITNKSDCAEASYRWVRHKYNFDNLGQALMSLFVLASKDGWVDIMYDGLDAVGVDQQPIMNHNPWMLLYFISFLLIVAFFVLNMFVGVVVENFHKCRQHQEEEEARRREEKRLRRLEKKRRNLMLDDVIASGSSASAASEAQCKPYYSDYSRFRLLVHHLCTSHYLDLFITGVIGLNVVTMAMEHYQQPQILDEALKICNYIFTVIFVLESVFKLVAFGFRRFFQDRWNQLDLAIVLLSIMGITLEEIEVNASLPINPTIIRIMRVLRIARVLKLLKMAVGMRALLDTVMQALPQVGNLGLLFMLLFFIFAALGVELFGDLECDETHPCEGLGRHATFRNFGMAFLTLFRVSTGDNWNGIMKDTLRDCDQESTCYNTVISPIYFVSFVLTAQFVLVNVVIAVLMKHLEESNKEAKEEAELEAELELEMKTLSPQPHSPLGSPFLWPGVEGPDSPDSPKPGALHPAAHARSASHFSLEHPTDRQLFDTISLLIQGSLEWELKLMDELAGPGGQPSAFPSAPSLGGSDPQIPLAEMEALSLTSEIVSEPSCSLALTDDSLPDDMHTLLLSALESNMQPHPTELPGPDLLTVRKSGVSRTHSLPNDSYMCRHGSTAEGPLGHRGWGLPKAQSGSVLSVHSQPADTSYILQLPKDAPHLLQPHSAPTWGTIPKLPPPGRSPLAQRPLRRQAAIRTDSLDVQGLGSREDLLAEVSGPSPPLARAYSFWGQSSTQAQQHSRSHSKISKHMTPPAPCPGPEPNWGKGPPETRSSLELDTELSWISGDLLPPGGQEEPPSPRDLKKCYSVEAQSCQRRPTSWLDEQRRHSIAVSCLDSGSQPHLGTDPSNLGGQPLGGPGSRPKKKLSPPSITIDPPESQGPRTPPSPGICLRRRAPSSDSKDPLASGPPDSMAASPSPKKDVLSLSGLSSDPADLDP

The first experiment addresses T1, human α1G T-type channels (Homo sapiens, UniProt O43497).
T1 construct: expressed in transfected cells; host or cells: HEK 293
Description: T-type calcium channel block, whole cell patch clamp in HEK cells. It counts as cell-based. The conditions noted are these: measured at 1 μM drug, mainly non-inactivated protocol. The method, then:
(§1) T-type calcium channel blocking activity was assayed in human embryonic kidney cells, HEK 293, stably transfected with the T-type calcium channel subunits. Briefly, cells were cultured in Dulbecco's modified eagle medium (DMEM) supplemented with 10% fetal bovine serum, 200 U/ml penicillin and 0.2 mg/ml streptomycin at 37° C. with 5% CO2. At 85% confluency cells were split with 0.25% trypsin/1 mM EDTA and plated at 10% confluency on glass coverslips. At 12 hours the medium was replaced and the cells stably transfected using a standard calcium phosphate protocol and the appropriate calcium channel cDNA's. Fresh DMEM was supplied and the cells transferred to 28° C./5% CO2. Cells were incubated for 1 to 2 days prior to whole cell recording.
(§2) Standard patch-clamp techniques were employed to identify blockers of T-type currents. Briefly, previously described HEK cell lines stably expressing human α1G, α1H and α1I T-type channels were used for all the recordings (passage #: 4-20, 37° C., 5% CO2). Whole cell patch clamp experiments were performed using an Axopatch 200B amplifier (Axon Instruments, Burlingame, Calif.) linked to a personal computer equipped with pCLAMP software. Data were analyzed using Clampfit (Axon Instruments) and SigmaPlot 4.0 (Jandel Scientific). To obtain T-type currents, plastic dishes containing semi-confluent cells were positioned on the stage of a ZEISS AXIOVERT S100 microscope after replacing the culture medium with external solution (see below). Whole-cell patches were obtained using pipettes (borosilicate glass with filament, O.D.: 1.5 mm, I.D.: 0.86 mm, 10 cm length), fabricated on a SUTTER P-97 puller with resistance values of ˜5 MΩ (see below for internal solution).
(§3) T-type currents were reliably obtained by using two voltage protocols: • (1) “non-inactivating”, and • (2) “inactivation”
(§4) In the non-inactivating protocol, the holding potential is set at −110 mV and with a pre-pulse at −100 mV for 1 second prior to the test pulse at −40 mV for 50 ms. In the inactivation protocol, the pre-pulse is at approximately −85 mV for 1 second, which inactivates about 15% of the T-type channels.
(§5) Test compounds were dissolved in external solution, 0.1-0.01% DMSO. After 10 min rest, they were applied by gravity close to the cell using a WPI microfil tubing. The “non-inactivated” pre-pulse was used to examine the resting block of a compound. The “inactivated” protocol was employed to study voltage-dependent block. However, the initial data shown below were mainly obtained using the non-inactivated protocol only. Kd values are shown for various compounds of the invention in Table 4 measured at 1 μM for the drug of interest except for compound 18 which was measured at 200 nM.
A general note: Patch clamp records ionic current or voltage across a cell membrane.
Take `O=C(/C=C\c1ccccc1)NC1(C(=O)Nc2cc(C(F)(F)F)cc(C(F)(F)F)c2)CCNCC1` [Compound 40, (Z)-N-(3,5-bis(trifluoromethyl)phenyl)-4-(3-phenylacrylamido)piperidine-4-carboxamide]: the Kd came to 130 nM.

`O=C(/C=C/c1ccc(F)cc1)NC1(C(=O)Nc2cc(Cl)cc(Cl)c2)CCNCC1` [Compound 44, (E)-N-(3,5-dichlorophenyl)-4-(3-(4-fluorophenyl)acrylamido)piperidine-4-carboxamide]: the Kd is 320 nM.

For `O=C(/C=C/c1ccc(F)cc1)NC1(C(=O)Nc2ccccc2C(F)(F)F)CCNCC1` [Compound 46, (E)-4-(3-(4-fluorophenyl)acrylamido)-N-(2-(trifluoromethyl)phenyl)piperidine-4-carboxamide], the Kd came to 14600 nM.

With `COCCN1CCC(NC(=O)/C=C/c2ccc(F)cc2)(C(=O)Nc2cc(C(F)(F)F)cc(C(F)(F)F)c2)CC1` [Compound 57, (E)-N-(3,5-bis(trifluoromethyl)phenyl)-4-(3-(4-fluorophenyl)acrylamido)-1-(2-methoxyethyl)piperidine-4-carboxamide], the Kd was 130 nM.

`CN(CCc1c[nH]c2ccc(F)cc12)C(=O)C1(NC(=O)/C=C/c2ccc(F)cc2)CCNCC1` [Compound 49, (E)-N-(2-(5-fluoro-1H-indol-3-yl)ethyl)-4-(3-(4-fluorophenyl)acrylamido)-N-methylpiperidine-4-carboxamide]: the Kd was determined as 580 nM.

Consider `CC(C)(O)C(=O)N1CCC(NC(=O)/C=C/c2ccc(F)cc2)(C(=O)Nc2cc(C(F)(F)F)cc(C(F)(F)F)c2)CC1` [Compound 66, (E)-N-(3,5-bis(trifluoromethyl)phenyl)-4-(3-(4-fluorophenyl)acrylamido)-1-(2-hydroxy-2-methylpropanoyl)piperidine-4-carboxamide], for which the Kd turned out to be 1630 nM.

Turning to `CC(C)(O)CN1CCC(NC(=O)/C=C/c2ccc(F)cc2)(C(=O)NCCc2c[nH]c3ccc(F)cc23)CC1` [Compound 69, (E)-N-(2-(5-fluoro-1H-indol-3-yl)ethyl)-4-(3-(4-fluorophenyl)acrylamido)-1-(2-hydroxy-2-methylpropyl)piperidine-4-carboxamide], the Kd turned out to be 3630 nM.

Take `Cc1cc(/C=C/C(=O)NC2(C(=O)Nc3cc(C(F)(F)F)cc(C(F)(F)F)c3)CCN(C)CC2)ccc1F` [Compound 43, (E)-N-(3,5-bis(trifluoromethyl)phenyl)-4-(3-(4-fluoro-3-methylphenyl)acrylamido)-1-methylpiperidine-4-carboxamide]: the dissociation constant (Kd) came to 80 nM.

For `CCNC(=O)N1CCC(NC(=O)/C=C/c2ccc(F)c(Br)c2)(C(=O)NCCc2c[nH]c3ccc(F)cc23)CC1` [Compound 26, (E)-4-(3-(3-bromo-4-fluorophenyl)acrylamido)-N1-ethyl-N4-(2-(5-fluoro-1H-indol-3-yl)ethyl)piperidine-1,4-dicarboxamide], the Kd is 550 nM.

Regarding `O=C(/C=C/c1ccc(F)c(F)c1)NC1(C(=O)Nc2ccccc2)CCNCC1` [Compound 34, (E)-4-(3-(3,4-difluorophenyl)acrylamido)-N-phenylpiperidine-4-carboxamide], the Kd came to 3290 nM.

On to `O=C(/C=C/c1ccc(F)c(Br)c1)NC1(C(=O)NCCc2c[nH]c3ccc(F)cc23)CCOCC1` [Compound 16, (E)-4-(3-(3-bromo-4-fluorophenyl)acrylamido)-N-(2-(5-fluoro-1H-indol-3-yl)ethyl)tetrahydro-2H-pyran-4-carboxamide], for which the dissociation constant (Kd) was determined as 430 nM.

In the case of `CN(CCc1c[nH]c2ccc(F)cc12)C(=O)C1(NC(=O)/C=C/c2ccc(F)cc2)CCN(C(=O)CN)CC1` [Compound 67, (E)-1-(2-aminoacetyl)-N-(2-(5-fluoro-1H-indol-3-yl)ethyl)-4-(3-(4-fluorophenyl)acrylamido)-N-methylpiperidine-4-carboxamide], the dissociation constant Kd was determined as 1020 nM.

As for `O=C(NCCc1c[nH]c2ccc(F)cc12)C1CCCN1C(=O)/C=C/c1ccc(F)c(Br)c1` (stereo in doubt) [Compound 19, (R,E)-1-(3-(3-bromo-4-fluorophenyl)acryloyl)-N-(2-(5-fluoro-1H-indol-3-yl)ethyl)pyrrolidine-2-carboxamide], the dissociation constant Kd turned out to be 1350 nM.

In the case of `O=C(/C=C/c1ccc(F)cc1)NC1(C(=O)Nc2cc(C(F)(F)F)cc(C(F)(F)F)c2)CCN(c2ncccn2)CC1` [Compound 52, (E)-N-(3,5-bis(trifluoromethyl)phenyl)-4-(3-(4-fluorophenyl)acrylamido)-1-(pyrimidin-2-yl)piperidine-4-carboxamide], the Kd was 160 nM.

`NCC(=O)N1CCC(NC(=O)/C=C/c2ccc(F)cc2)(C(=O)Nc2cc(C(F)(F)F)cc(C(F)(F)F)c2)CC1` [Compound 63, (E)-1-(2-aminoacetyl)-N-(3,5-bis(trifluoromethyl)phenyl)-4-(3-(4-fluorophenyl)acrylamido)piperidine-4-carboxamide]: the equilibrium dissociation constant (Kd) was 90 nM.

As to `NC(=O)CN1CCC(NC(=O)/C=C/c2ccc(F)cc2)(C(=O)Nc2cc(C(F)(F)F)cc(C(F)(F)F)c2)CC1` [Compound 62, (E)-1-(2-amino-2-oxoethyl)-N-(3,5-bis(trifluoromethyl)phenyl)-4-(3-(4-fluorophenyl)acrylamido)piperidine-4-carboxamide], the Kd was found to be 280 nM.

On to `CC(=O)N1CCC(NC(=O)/C=C/c2ccc(F)c(Br)c2)(C(=O)NCCc2c[nH]c3ccc(F)cc23)CC1` [Compound 21, (E)-1-acetyl-4-(3-(3-bromo-4-fluorophenyl)acrylamido)-N-(2-(5-fluoro-1H-indol-3-yl)ethyl)piperidine-4-carboxamide], for which the dissociation constant Kd came out at 2620 nM.

For `COCCC(=O)N1CCC(NC(=O)/C=C/c2ccc(F)c(Br)c2)(C(=O)NCCc2c[nH]c3ccc(F)cc23)CC1` [Compound 25, (E)-4-(3-(3-bromo-4-fluorophenyl)acrylamido)-N-(2-(5-fluoro-1H-indol-3-yl)ethyl)-1-(3-methoxypropanoyl)piperidine-4-carboxamide], the Kd was found to be 5370 nM.

For the molecule `COCCOC1CCC(NC(=O)/C=C/c2ccc(F)cc2)(C(=O)Nc2cc(C(F)(F)F)cc(C(F)(F)F)c2)CC1` (stereo not shown) [Compound 61, (E)-N-(3,5-bis(trifluoromethyl)phenyl)-1-(3-(4-fluorophenyl)acrylamido)-4-(2-methoxyethoxy)cyclohexanecarboxamide], the dissociation constant (Kd) amounted to 990 nM.

Take `CN(CCc1c[nH]c2ccc(F)cc12)C(=O)C1(NC(=O)/C=C/c2ccc(F)cc2)CCN(CC(N)=O)CC1` [Compound 65, (E)-1-(2-amino-2-oxoethyl)-N-(2-(5-fluoro-1H-indol-3-yl)ethyl)-4-(3-(4-fluorophenyl)acrylamido)-N-methylpiperidine-4-carboxamide]: the equilibrium dissociation constant (Kd) was determined as 2570 nM.

Turning to `O=C(/C=C/c1ccc(F)cc1)NC1(C(=O)Nc2cc(C(F)(F)F)cc(C(F)(F)F)c2)CCC(O)CC1` (stereo not shown) [Compound 56, (E)-N-(3,5-bis(trifluoromethyl)phenyl)-1-(3-(4-fluorophenyl)acrylamido)-4-hydroxycyclohexanecarboxamide], the dissociation constant (Kd) is 1060 nM.

With `O=C(/C=C/c1ccc(F)cc1)NC1(C(=O)Nc2cccc(C(F)(F)F)c2)CCNCC1` [Compound 33, (E)-4-(3-(4-fluorophenyl)acrylamido)-N-(3-(trifluoromethyl)phenyl)piperidine-4-carboxamide], the dissociation constant (Kd) is 2450 nM.

For a further experiment, the target named is T2, human α1H T-type channels (Homo sapiens, UniProt O95180).
T2 construct: expressed in transfected cells; host or cells: HEK 293
T2 sequence (O95180 whole entry): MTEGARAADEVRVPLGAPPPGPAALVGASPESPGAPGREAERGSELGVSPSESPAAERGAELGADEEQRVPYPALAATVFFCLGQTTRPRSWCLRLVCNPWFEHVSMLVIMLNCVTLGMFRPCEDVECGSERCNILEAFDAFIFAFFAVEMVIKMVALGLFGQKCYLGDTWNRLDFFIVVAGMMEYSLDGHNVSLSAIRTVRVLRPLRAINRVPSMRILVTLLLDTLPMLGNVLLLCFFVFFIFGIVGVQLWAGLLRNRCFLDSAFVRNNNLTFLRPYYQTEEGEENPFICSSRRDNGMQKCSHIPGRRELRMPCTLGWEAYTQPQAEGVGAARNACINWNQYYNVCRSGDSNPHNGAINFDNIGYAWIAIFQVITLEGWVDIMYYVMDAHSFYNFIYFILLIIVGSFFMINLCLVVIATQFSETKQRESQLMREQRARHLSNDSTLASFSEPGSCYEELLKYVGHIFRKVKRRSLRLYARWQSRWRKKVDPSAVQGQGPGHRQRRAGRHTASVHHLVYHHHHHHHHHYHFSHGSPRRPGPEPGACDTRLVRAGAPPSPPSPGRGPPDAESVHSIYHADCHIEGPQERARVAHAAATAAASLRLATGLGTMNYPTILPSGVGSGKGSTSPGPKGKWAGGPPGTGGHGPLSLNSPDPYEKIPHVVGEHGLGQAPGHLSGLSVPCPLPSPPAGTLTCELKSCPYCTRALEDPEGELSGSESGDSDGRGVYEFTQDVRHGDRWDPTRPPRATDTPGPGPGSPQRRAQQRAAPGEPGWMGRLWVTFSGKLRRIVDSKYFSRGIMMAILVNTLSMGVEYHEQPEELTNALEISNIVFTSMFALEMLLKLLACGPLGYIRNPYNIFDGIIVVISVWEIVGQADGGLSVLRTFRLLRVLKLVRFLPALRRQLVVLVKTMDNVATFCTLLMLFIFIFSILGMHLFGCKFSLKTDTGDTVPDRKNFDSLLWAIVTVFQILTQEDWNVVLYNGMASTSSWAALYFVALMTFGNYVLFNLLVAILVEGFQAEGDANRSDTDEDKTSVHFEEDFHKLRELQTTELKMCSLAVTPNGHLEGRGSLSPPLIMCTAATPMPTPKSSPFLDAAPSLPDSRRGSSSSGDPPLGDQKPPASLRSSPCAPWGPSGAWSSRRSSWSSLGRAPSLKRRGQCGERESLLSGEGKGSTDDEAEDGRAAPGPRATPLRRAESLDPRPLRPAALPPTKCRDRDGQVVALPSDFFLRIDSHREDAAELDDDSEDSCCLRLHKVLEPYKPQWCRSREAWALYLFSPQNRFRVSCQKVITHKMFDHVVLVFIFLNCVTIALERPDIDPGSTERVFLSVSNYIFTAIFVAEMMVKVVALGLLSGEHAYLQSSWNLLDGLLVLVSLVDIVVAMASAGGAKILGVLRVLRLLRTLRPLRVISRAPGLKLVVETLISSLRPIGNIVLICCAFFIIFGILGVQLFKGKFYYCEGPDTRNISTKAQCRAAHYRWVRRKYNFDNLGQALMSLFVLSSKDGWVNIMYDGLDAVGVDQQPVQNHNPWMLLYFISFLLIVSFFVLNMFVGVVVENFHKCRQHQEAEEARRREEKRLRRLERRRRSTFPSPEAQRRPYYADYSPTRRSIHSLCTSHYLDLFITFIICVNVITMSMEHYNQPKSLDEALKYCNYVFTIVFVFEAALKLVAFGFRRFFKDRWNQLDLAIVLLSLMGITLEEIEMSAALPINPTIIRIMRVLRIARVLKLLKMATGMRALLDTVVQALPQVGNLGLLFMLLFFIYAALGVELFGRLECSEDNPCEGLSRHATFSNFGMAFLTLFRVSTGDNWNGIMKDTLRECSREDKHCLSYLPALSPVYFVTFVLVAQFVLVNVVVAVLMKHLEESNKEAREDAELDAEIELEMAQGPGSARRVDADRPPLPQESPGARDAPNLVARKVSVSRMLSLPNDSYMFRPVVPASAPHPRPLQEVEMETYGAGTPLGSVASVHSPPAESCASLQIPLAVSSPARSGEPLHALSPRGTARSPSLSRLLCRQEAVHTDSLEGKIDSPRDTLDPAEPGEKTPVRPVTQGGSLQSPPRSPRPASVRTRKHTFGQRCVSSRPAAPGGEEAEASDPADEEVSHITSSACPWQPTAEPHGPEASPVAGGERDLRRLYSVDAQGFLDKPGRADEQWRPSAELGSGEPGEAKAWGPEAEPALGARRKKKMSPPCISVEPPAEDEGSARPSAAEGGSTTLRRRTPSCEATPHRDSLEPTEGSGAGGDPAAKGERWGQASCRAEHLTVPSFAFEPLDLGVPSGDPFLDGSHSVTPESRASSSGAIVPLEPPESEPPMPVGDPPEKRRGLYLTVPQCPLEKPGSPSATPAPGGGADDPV
The experiment is described as above. The experiment is classed as cell-based. The settings on record: measured at 1 μM drug, mainly non-inactivated protocol. The method, then:
as §1, §2, §3, §4, §5
On to `O=C(/C=C\c1ccccc1)NC1(C(=O)Nc2cc(C(F)(F)F)cc(C(F)(F)F)c2)CCNCC1` [Compound 40, (Z)-N-(3,5-bis(trifluoromethyl)phenyl)-4-(3-phenylacrylamido)piperidine-4-carboxamide], for which the Kd turned out to be 2420 nM.

In the case of `O=C(/C=C/c1ccc(F)cc1)NC1(C(=O)Nc2cc(Cl)cc(Cl)c2)CCNCC1` [Compound 44, (E)-N-(3,5-dichlorophenyl)-4-(3-(4-fluorophenyl)acrylamido)piperidine-4-carboxamide], the Kd came out at 1610 nM.

In the case of `Cc1cc(/C=C/C(=O)NC2(C(=O)Nc3cc(C(F)(F)F)cc(C(F)(F)F)c3)CCN(C)CC2)ccc1F` [Compound 43, (E)-N-(3,5-bis(trifluoromethyl)phenyl)-4-(3-(4-fluoro-3-methylphenyl)acrylamido)-1-methylpiperidine-4-carboxamide], the dissociation constant (Kd) was determined as 1120 nM.
